According to US20210079015A1, “NOVEL DIHYDROISOXAZOLE COMPOUNDS AND THEIR USE FOR THE TREATMENT OF HEPATITIS B” (Novartis AG, priority 2017, published 2021):

Test system: HBV
Experiment: Anti-HBV assay (inhibition of HBV replication in HepG2.cl42 cells, HBV DNA by qPCR)
Assay type: cell-based, HBV ayw strain
Conditions: Hepatitis B virus, 96 h, treated four days, HBV DNA quantified by real time PCR, read-out: HBsAg EC50

O=C(Nc1cc(F)c(F)c(F)c1)N1CCc2noc(-c3ccc(F)cc3F)c2C1 [Compound 1.1, 3-(2,4-difluorophenyl)-N-(3,4,5-trifluorophenyl)-6,7-dihydroisoxazolo[4,3-c]pyridine-5(4H)-carboxamide] and O=C(Nc1cc(F)c(F)c(F)c1)N1CCc2onc(-c3ccc(F)cc3F)c2C1 [Compound 7.1, 3-(2,4-difluorophenyl)-N-(3,4,5-trifluorophenyl)-6,7-dihydroisoxazolo[4,5-c]pyridine-5(4H)-carboxamide] fall in the same range of EC50: 0.1 to 1 µM for the first, 0.1 to 1 µM for the second.

O=C(Nc1cc(F)c(F)c(F)c1)N1CCc2noc(C3CCCCC3)c2C1 [Compound 2.1, 3-cyclohexyl-N-(3,4,5-trifluorophenyl)-6,7-dihydroisoxazolo[4,3-c]pyridine-5(4H)-carboxamide] and C[C@H]1Cc2noc(C3CCCC3)c2CN1C(=O)Nc1cc(F)c(F)c(F)c1 [Compound 43] fall in the same range of EC50: 0.1 to 1 µM for the first, 0.1 to 1 µM for the second.

First: CC1Cc2noc(-c3ccc(F)cc3F)c2CN1C(=O)Nc1cc(F)c(F)c(F)c1 (centres unmarked) [Compound 3.1, 3-(2,4-difluorophenyl)-6-methyl-N-(3,4,5-trifluorophenyl)-6,7-dihydroisoxazolo[4,3-c]pyridine-5(4H)-carboxamide]
Second: C[C@H]1Cc2noc(-c3ccc(F)cc3F)c2CN1C(=O)Nc1cc(F)c(F)c(F)c1 [Compound 3.1-I, (S)-3-(2,4-difluorophenyl)-6-methyl-N-(3,4,5-trifluorophenyl)-6,7-dihydroisoxazolo[4,3-c]pyridine-5(4H)-carboxamide]
The EC50 of the first is higher: 0.1 to 1 µM for the first, < 0.1 µM for the second. The second is the more potent here.

C[C@@H]1Cc2noc(-c3ccc(F)cc3F)c2CN1C(=O)Nc1cc(F)c(F)c(F)c1 [Compound 3.1-II, (R)-3-(2,4-difluorophenyl)-6-methyl-N-(3,4,5-trifluorophenyl)-6,7-dihydroisoxazolo[4,3-c]pyridine-5(4H)-carboxamide] and C[C@H]1Cc2noc(-c3ccccc3F)c2CN1C(=O)Nc1cc(F)c(F)c(F)c1 [Compound 10] fall in the same range of EC50: 0.1 to 1 µM for the first, 0.1 to 1 µM for the second.

CC1c2c(noc2-c2ccc(F)cc2F)CCN1C(=O)Nc1cc(F)c(F)c(F)c1 (centres unmarked) [Compound 4.1, 3-(2,4-difluorophenyl)-4-methyl-N-(3,4,5-trifluorophenyl)-6,7-dihydroisoxazolo[4,3-c]pyridine-5(4H)-carboxamide] and C[C@H]1c2c(noc2-c2ccc(F)cn2)CCN1C(=O)Nc1cc(F)c(F)c(F)c1 [Compound 28, (S)-3-(5-fluoropyridin-2-yl)-4-methyl-N-(3,4,5-trifluorophenyl)-6,7-dihydroisoxazolo[4,3-c]pyridine-5(4H)-carboxamide] cannot be ordered by EC50: ≥ 1 µM for the first, 0.1 to 1 µM for the second.

O=C(Nc1cc(F)c(F)c(F)c1)N1CCc2noc(N3CCCC3=O)c2C1 [Compound 5.1, 3-(2-oxopyrrolidin-1-yl)-N-(3,4,5-trifluorophenyl)-6,7-dihydroisoxazolo[4,3-c]pyridine-5(4H)-carboxamide] and O=C(Nc1cc(F)c(F)c(F)c1)N1CCc2noc(N3CCOC3=O)c2C1 [Compound 5.2, 3-(2-oxooxazolidin-3-yl)-N-(3,4,5-trifluorophenyl)-6,7-dihydroisoxazolo[4,3-c]pyridine-5(4H)-carboxamide] fall in the same range of EC50: 0.1 to 1 µM for the first, 0.1 to 1 µM for the second.

Going from O=C(Nc1cc(F)c(F)c(F)c1)N1CCc2noc(N3CCCC3)c2C1 [Compound 5.3, 3-(pyrrolidin-1-yl)-N-(3,4,5-trifluorophenyl)-6,7-dihydroisoxazolo[4,3-c]pyridine-5(4H)-carboxamide] to C[C@H]1Cc2noc(N3CCCCC3=O)c2CN1C(=O)Nc1cc(F)c(F)c(F)c1 [Compound 46, (S)-6-methyl-3-(2-oxopiperidin-1-yl)-N-(3,4,5-trifluorophenyl)-6,7-dihydroisoxazolo[4,3-c]pyridine-5(4H)-carboxamide], the EC50 falls from ≥ 1 µM to < 0.1 µM. The second is the more potent here.

O=C(Nc1cc(F)c(F)c(F)c1)C1CCc2noc(-c3ccc(F)cc3F)c2C1 (centres unmarked) [Compound 6.1, 3-(2,4-difluorophenyl)-N-(3,4,5-trifluorophenyl)-4,5,6,7-tetrahydrobenzo[c]isoxazole-5-carboxamide] and C[C@H]1Cc2noc(-c3cccc(F)c3)c2CN1C(=O)Nc1cc(F)c(F)c(F)c1 [Compound 21] fall in the same range of EC50: 0.1 to 1 µM for the first, 0.1 to 1 µM for the second.

First: C[C@H]1Cc2noc(N3CCCC3=O)c2CN1C(=O)Nc1cc(F)c(F)c(F)c1 [Compound 8.1, (S)-6-methyl-3-(2-oxopyrrolidin-1-yl)-N-(3,4,5-trifluorophenyl)-6,7-dihydroisoxazolo[4,3-c]pyridine-5(4H)-carboxamide]
Second: C[C@H]1Cc2noc(-c3cnn(C)c3)c2CN1C(=O)Nc1cc(F)c(F)c(F)c1 [Compound 31]
The EC50 of the first is lower: < 0.1 µM for the first, 0.1 to 1 µM for the second.

First: COc1ccc(-c2onc3c2CN(C(=O)Nc2cc(F)c(F)c(F)c2)[C@@H](C)C3)cc1 [Compound 9, (S)-3-(4-methoxyphenyl)-6-methyl-N-(3,4,5-trifluorophenyl)-6,7-dihydroisoxazolo[4,3-c]pyridine-5(4H)-carboxamide]
Second: Cc1ccc(-c2onc3c2CN(C(=O)Nc2cc(F)c(F)c(F)c2)[C@@H](C)C3)cc1 [Compound 11]
The EC50 of the first is lower: < 0.1 µM for the first, 0.1 to 1 µM for the second. The first is the more potent here.

C[C@H]1Cc2noc(-c3ccccc3Cl)c2CN1C(=O)Nc1cc(F)c(F)c(F)c1 [Compound 12] and Cc1ccccc1-c1onc2c1CN(C(=O)Nc1cc(F)c(F)c(F)c1)[C@@H](C)C2 [Compound 17] fall in the same range of EC50: 0.1 to 1 µM for the first, 0.1 to 1 µM for the second.

C[C@H]1Cc2noc(-c3ccc(F)cc3)c2CN1C(=O)Nc1cc(F)c(F)c(F)c1 [Compound 13] and C[C@H]1Cc2noc(-c3ccc(Cl)cc3)c2CN1C(=O)Nc1cc(F)c(F)c(F)c1 [Compound 18] fall in the same range of EC50: 0.1 to 1 µM for the first, 0.1 to 1 µM for the second.

C[C@H]1Cc2noc(-c3cccc(C#N)c3)c2CN1C(=O)Nc1cc(F)c(F)c(F)c1 [Compound 14] and C[C@H]1Cc2noc(-c3cccc(Cl)c3)c2CN1C(=O)Nc1cc(F)c(F)c(F)c1 [Compound 22] cannot be ordered by EC50: 0.1 to 1 µM for the first, ≥ 1 µM for the second.

C[C@H]1Cc2noc(-c3ccccc3)c2CN1C(=O)Nc1cc(F)c(F)c(F)c1 [Compound 15] and Cc1cccc(-c2onc3c2CN(C(=O)Nc2cc(F)c(F)c(F)c2)[C@@H](C)C3)c1 [Compound 23] cannot be ordered by EC50: 0.1 to 1 µM for the first, ≥ 1 µM for the second.

C[C@H]1Cc2noc(-c3ccc(OC(F)(F)F)cc3)c2CN1C(=O)Nc1cc(F)c(F)c(F)c1 [Compound 16] and C[C@H]1Cc2noc(-c3ccc(OC(F)F)cc3)c2CN1C(=O)Nc1cc(F)c(F)c(F)c1 [Compound 24] fall in the same range of EC50: 0.1 to 1 µM for the first, 0.1 to 1 µM for the second.

C[C@H]1Cc2noc(-c3ccc(C#N)cc3)c2CN1C(=O)Nc1cc(F)c(F)c(F)c1 [Compound 19] and COc1cccc(-c2onc3c2CN(C(=O)Nc2cc(F)c(F)c(F)c2)[C@@H](C)C3)c1 [Compound 20] fall in the same range of EC50: 0.1 to 1 µM for the first, 0.1 to 1 µM for the second.

Cc1cc(-c2onc3c2CN(C(=O)Nc2cc(F)c(F)c(F)c2)[C@@H](C)C3)no1 [Compound 25, (S)-6-methyl-3-(5-methylisoxazol-3-yl)-N-(3,4,5-trifluorophenyl)-6,7-dihydroisoxazolo[4,3-c]pyridine-5(4H)-carboxamide] and Cc1nc(-c2onc3c2CN(C(=O)Nc2cc(F)c(F)c(F)c2)[C@@H](C)C3)co1 [Compound 35] fall in the same range of EC50: 0.1 to 1 µM for the first, 0.1 to 1 µM for the second.

Cc1cc(-c2onc3c2[C@H](C)N(C(=O)Nc2cc(F)c(F)c(F)c2)CC3)no1 [Compound 26, (S)-4-methyl-3-(5-methylisoxazol-3-yl)-N-(3,4,5-trifluorophenyl)-6,7-dihydroisoxazolo[4,3-c]pyridine-5(4H)-carboxamide] and Cc1nc(-c2onc3c2[C@H](C)N(C(=O)Nc2cc(F)c(F)c(F)c2)CC3)co1 [Compound 36] cannot be ordered by EC50: ≥ 1 µM for the first, ≥ 1 µM for the second.

First: C[C@H]1Cc2noc(-c3ccc(F)cn3)c2CN1C(=O)Nc1cc(F)c(F)c(F)c1 [Compound 27, (S)-3-(5-fluoropyridin-2-yl)-6-methyl-N-(3,4,5-trifluorophenyl)-6,7-dihydroisoxazolo[4,3-c]pyridine-5(4H)-carboxamide]
Second: C[C@H]1Cc2noc(-c3ccn(C)n3)c2CN1C(=O)Nc1cc(F)c(F)c(F)c1 [Compound 33]
The EC50 of the first is higher: 0.1 to 1 µM for the first, < 0.1 µM for the second. The second is the more potent here.

Cc1nc(-c2onc3c2CN(C(=O)Nc2cc(F)c(F)c(F)c2)[C@@H](C)C3)cs1 [Compound 29, (S)-6-methyl-3-(2-methylthiazol-4-yl)-N-(3,4,5-trifluorophenyl)-6,7-dihydroisoxazolo[4,3-c]pyridine-5(4H)-carboxamide] and Cc1nc(-c2onc3c2[C@H](C)N(C(=O)Nc2cc(F)c(F)c(F)c2)CC3)cs1 [Compound 30, (S)-4-methyl-3-(2-methylthiazol-4-yl)-N-(3,4,5-trifluorophenyl)-6,7-dihydroisoxazolo[4,3-c]pyridine-5(4H)-carboxamide] cannot be ordered by EC50: 0.1 to 1 µM for the first, ≥ 1 µM for the second.

C[C@H]1c2c(noc2-c2cnn(C)c2)CCN1C(=O)Nc1cc(F)c(F)c(F)c1 [Compound 32] and C[C@H]1c2c(noc2-c2ccn(C)n2)CCN1C(=O)Nc1cc(F)c(F)c(F)c1 [Compound 34] cannot be ordered by EC50: ≥ 1 µM for the first, ≥ 1 µM for the second.

C[C@H]1Cc2noc(-c3cn(C)nn3)c2CN1C(=O)Nc1cc(F)c(F)c(F)c1 [Compound 37] and C[C@H]1c2c(noc2-c2cn(C)nn2)CCN1C(=O)Nc1cc(F)c(F)c(F)c1 [Compound 38] cannot be ordered by EC50: 0.1 to 1 µM for the first, ≥ 1 µM for the second.

Cc1nc(-c2onc3c2CN(C(=O)Nc2cc(F)c(F)c(F)c2)[C@@H](C)C3)c(C)o1 [Compound 39] and Cc1nc(-c2onc3c2[C@H](C)N(C(=O)Nc2cc(F)c(F)c(F)c2)CC3)c(C)o1 [Compound 40] cannot be ordered by EC50: 0.1 to 1 µM for the first, ≥ 1 µM for the second.

Cc1nc(-c2onc3c2CN(C(=O)Nc2cc(F)c(F)c(F)c2)[C@@H](C)C3)no1 [Compound 41] and Cc1nc(-c2onc3c2[C@H](C)N(C(=O)Nc2cc(F)c(F)c(F)c2)CC3)no1 [Compound 42] fall in the same range of EC50: 0.1 to 1 µM for the first, 0.1 to 1 µM for the second.

Compared with C[C@H]1c2c(noc2C2CCCC2)CCN1C(=O)Nc1cc(F)c(F)c(F)c1 [Compound 44], O=C(Nc1cc(F)c(F)c(C(F)F)c1)N1CCc2noc(N3CCCOC3=O)c2C1 [Compound 45, N-(3-(difluoromethyl)-4,5-difluorophenyl)-3-(2-oxo-1,3-oxazinan-3-yl)-6,7-dihydroisoxazolo[4,3-c]pyridine-5(4H)-carboxamide] is lower in EC50: ≥ 1 µM for the first, < 0.1 µM for the second. The second is the more potent here.
